Measurements: PubChem BioAssay (NCI)
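Values below derive from 48-hour exposures of cells grown in 96-well plates, with endpoints linearly interpolated between the two concentrations bracketing the appropriate inhibition level. At the TGI there is no net growth.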

Experiments:
Assay in all cases: NCI anticancer screen, dose series, 48 h
[1] = tested on: 786-0 renal
[2] = tested on: A498 renal
[3] = tested on: A549 NSCLC
[4] = tested on: ACHN renal
[5] = tested on: CCRF-CEM leukemia
[6] = tested on: COLO 205 colon
[7] = tested on: DU-145 prostate
[8] = tested on: EKVX NSCLC
[9] = tested on: HCC-2998 colon
[10] = tested on: HCT-116 colon
[11] = tested on: HCT-15 colon
[12] = tested on: HL-60(TB) leukemia
[13] = tested on: HOP-62 NSCLC
[14] = tested on: HS 578T breast
[15] = tested on: HT29 colon
[16] = tested on: IGROV1 ovarian
[17] = tested on: K-562 leukemia
[18] = tested on: KM12 colon
[19] = tested on: LOX IMVI melanoma
[20] = tested on: M14 melanoma
[21] = tested on: MCF7 breast
[22] = tested on: MDA-MB-231 breast
[23] = tested on: MDA-MB-435
[24] = tested on: MDA-N
[25] = tested on: MOLT-4 leukemia
[26] = tested on: NCI-H226 lung
[27] = tested on: NCI-H23 lung
[28] = tested on: NCI-H460 lung
[29] = tested on: NCI-H522 lung
[30] = tested on: NCI/ADR-RES ovarian
[31] = tested on: OVCAR-3 ovarian
[32] = tested on: OVCAR-4 ovarian
[33] = tested on: OVCAR-5 ovarian
[34] = tested on: OVCAR-8 ovarian
[35] = tested on: PC-3 prostate
[36] = tested on: RPMI-8226 leukemia
[37] = tested on: RXF 393 renal
[38] = tested on: SF-268 CNS
[39] = tested on: SF-295 CNS
[40] = tested on: SF-539 CNS
[41] = tested on: SK-MEL-2 melanoma
[42] = tested on: SK-MEL-28 melanoma
[43] = tested on: SK-MEL-5 melanoma
[44] = tested on: SK-OV-3 ovarian
[45] = tested on: SN12C renal
[46] = tested on: SNB-19 CNS
[47] = tested on: SNB-75 CNS
[48] = tested on: SW-620 colon
[49] = tested on: T-47D breast
[50] = tested on: TK-10 renal
[51] = tested on: U251 CNS
[52] = tested on: UACC-257 melanoma
[53] = tested on: UACC-62 melanoma
[54] = tested on: UO-31 renal
[55] = tested on: HOP-92 NSCLC
[56] = tested on: MALME-3M melanoma
[57] = tested on: CAKI-1 renal
[58] = tested on: SR leukemia

Measured: TGI

CN1N=C(c2ccncc2)OC1c1ccc(Cl)cc1Cl (configuration not stated)
55.6 µM: [47]
76.5 µM: [53]
84.2 µM: [26]
not listed: [55] | [56] | [57] | [58]
> 100 µM: all other assays above

COC(=O)CCCc1ccc2c(c1)CC1(Cc3ccccc3C1)C2
15.5 µM: [25]
97.3 µM: [11]
62.5 µM: [6]
56.1 µM: [41]
71.6 µM: [5]
78.6 µM: [10]
53.6 µM: [24]
61.1 µM: [23]
85.5 µM: [36]
59.7 µM: [43]
not listed: [7] | [12] | [17] | [28] | [38] | [42] | [46] | [47] | [48] | [57] | [58]
> 100 µM: all other assays above

CN1CCN(Cn2nc(COc3ccc(Cl)cc3)n(/N=C/c3ccc(-c4ccc(Cl)cc4Cl)o3)c2=S)CC1
28.3 µM: [57]
25 µM: [7]
41.1 µM: [25]
38.9 µM: [30]
23.5 µM: [35]
34.3 µM: [28]
16.8 µM: [13]
14.8 µM: [58]
30.6 µM: [31] | [50]
17 µM: [1]
37.7 µM: [8]
32.6 µM: [2] | [54]
14.1 µM: [24]
36.7 µM: [21] | [52]
36.9 µM: [11]
30.2 µM: [44]
49.2 µM: [26]
27.8 µM: [39]
21.3 µM: [38]
15.4 µM: [15]
19 µM: [48]
26.2 µM: [10]
24.1 µM: [19]
18.7 µM: [34]
7.13 µM: [37]
33.9 µM: [4]
11 µM: [18]
8.02 µM: [23]
41 µM: [41]
35.5 µM: [43]
28.2 µM: [42]
10.5 µM: [32]
17.3 µM: [5]
> 100 µM: [17]
7.72 µM: [9]
33.2 µM: [33]
23.1 µM: [51]
24 µM: [16]
22 µM: [22]
46.3 µM: [49]
72.3 µM: [40]
10.2 µM: [29]
22.7 µM: [55]
23.8 µM: [14]

CC(=O)Oc1cc2c[n+](C)c3c4cc(OC(C)=O)c(OC(C)=O)cc4ccc3c2cc1OC(C)=O
26.2 µM: [15]
> 65.3 µM: [2]
73.4 µM: [8]
> 32.5 µM: [10]
11 µM: [37]
> 50.1 µM: [33]
9.46 µM: [54]
> 48.4 µM: [20]
> 57.8 µM: [39]
> 61.4 µM: [43]
not listed: [5] | [12] | [22] | [23] | [31] | [32] | [40] | [41] | [47]
> 100 µM: all other assays above

COC(=O)[C@@H](NC1(c2ccccc2)c2ccccc2-c2ccccc21)[C@H](OC(=O)[C@H]1CCCN1S(=O)(=O)c1ccccc1)C(=O)OC
84.1 µM: [55]
not listed: [14] | [36] | [57]
> 100 µM: all other assays above
